Data published in patent publication US10501453B2, “Benzothiazole or benzoxazole compounds as SUMO activators” (Icahn School of Medicine at Mount Sinai, priority 2012, dated 2019).
≈ marks a conversion by molar mass, not a printed value. Read-outs that look alike come from different tables or passages of the source.

Tests used:
HEK-293 cells [1] = test system: HEK-293 cells
YFP-SUMO1 = YFP-SUMO1 accumulation (cell image) in HEK-293 cells expressing YFP-SUMO1 and pcDNA3.0-SERCA2a; format: cell-based; conditions: increase vs. DMSO; for fold induction at 10 µM: Homo sapiens, HEK293, 24 hours
Text: (§1) The following antibodies were used for immunoblotting and immunoprecipitation (IP): polyclonal anti-SERCA2a (21th century Biochem Inc.), monoclonal anti-GAPDH (Sigma-Aldrich, catalog no. G8795), monoclonal anti-SUMO 1 (Cell Signaling Technology Inc., catalog no. 4930), anti-mouse horseradish peroxidase (HRP) (Pierce Biotechnology Inc., catalog no. 32430), and anti-rabbit HRP (Pierce Biotechnology Inc., catalog no. 32460). YFP-tagged SUMO1, pcDNA3.0-SERCA2a, and HA-tagged Ubc9 plasmids were used for the transfection. The plasmid DNA was amplified in the Escherichia coli strain DH5a and extracted by using a commercial purification kit (Qiagen, catalog no. 12263). Purified plasmid was resuspended in sterile TE buffer (10 mM Tris-HCl and 1 mM EDTA, pH 7.6). Only the preparation highest purity (A260/A280>1.8) was used for transfection. 1 μg of each plasmid was used for transfection. HEK-293 cells (American Type Culture Collection, catalog no. CRL-1873) were grown at 37° C. and under a 5% CO2 humidified atmosphere in Dulbecco's modified Eagle's medium (DMEM, Cellgro, catalog no. 10-0 13-CM) containing 10% fetal bovine serum (SAFC Bioscience, catalog no. 12107) and 100 i.u of penicillin/ml and 100 μg of streptomycin/ml. HEK-293 cells were seeded at a density of 3-5×10^5 cells per 60 mm culture dish in DMEM. The cells were transiently transfected using Lipofectamine 2000 (Invitrogen, catalog no. 11668) with indicated expression plasmids. After 24 hours, the cells were treated with either small molecules or dimethyl sulfoxide (DMSO, Sigma-Aldrich, catalog no. D2650).
(§2) Each compound was added at 10 μM. DMSO was used as a control. After 24 hours at 37° C., SERCA2a SUMOylation and functional analysis were determined.
Cellular permeability and potential activity of the compounds were examined by tracking of the YFP-SUMO1. HEK-293 cells expressing YFP-SUMOI and pcDNA3.0-SERCA2a were incubated with either 10 μM DMSO or 10 μM small molecules for 24 hours at 37° C. Fluorescent signals were monitored by fluorescence microscopy. HA-tagged Ubc9 expressing cells were served as a positive control.
The ability of the Example compound to SUMOylate SERCA2a was examined using an in vitro system in HEK 293 cells where both SERCA2a and SUMO 1 are expressed. The cellular permeability and potential activity of the Example compounds was examined by tracking of the YFP-SUM01. HEK-293 cells expressing YFP-SUM01 and pcDNA3.0-SERCA2a were treated with either 10 μM DMSO or 10 μM indicated Example 1 for 24 hrs. Fluorescent signals were monitored by fluorescence microscopy. HA-Ubc9 expressing cells were served as a positive control. The SERCA2a SUMOylation profiling was then analyzed by using the same cells (FIG. 1B, WCL, whole cell lysates; S-SERCA2a, SUMOylated SERCA2a).

SERCA2a = SERCA2a SUMOylation assay in HEK-293 cells (immunoprecipitation/immunoblotting); format: cell-based; conditions: compared with DMSO control; 10 μM
Text: as §1, §2
Equal amounts of protein from either small molecule treated or DMSO treated cells or immunoprecipitates were resolved by 7.5% SDS-PAGE and transferred to nitrocellulose membranes (Bio-Rad, catalog no. 162-0112). The membranes were blocked for 1 hour at room temperature with 5% non-fat milk (Cell Signaling Technology Inc., catalog no. 9999) in TBST (10 mM Tris-HCl, 150 mM NaCl, and 0.05% tween-20, pH 8.0). The blots were incubated with specific primary antibodies at 4° C. for overnight. The blots were then washed five times for 10 minutes each with TBST and incubated for 1 hour with HRP-conjugated secondary antibodies in TBST with 5% non-fat milk. After five times TBST washes, the protein bands were visualized with enhanced chemiluminescence (Pierce Biotechnology Inc., catalog no. 32132) and exposed to x-ray film (Denville Scientific Inc., catalog no. E3012). GAPDH expression provided an internal control.
Post-transfection (48 hours), the HEK-293 cells were rinsed twice with phosphate-buffered saline (PBS, Cellgro, catalog no. 21-040-CM) and lysed in 1% Nonidet P-40 lysis buffer (Boston Bioproducts, catalog no. BP-119) with 10 mM N-ethylmaleimide (NEM, Sigma-Aldrich, catalog no. N3876) and […] inhibitor cocktail (Complete Mini Tablet, Roche Applied Science, catalog no. 11836153001). 2 mg of protein were mixed with the anti-SERCA2a antibodies for overnight at 4° C. in lysis buffer. Pre-washed protein A-Separose beads (Pierce Biotechnology Inc., catalog no. 20333) was added to each sample and incubated 1 hour at 4° C. with gentle rocking. Immunocomplexes were washed with lysis buffer three times and precipitated by centrifugation at 12000×g for 10 seconds. The immunocomplexes were resuspended in SDS sample buffer and subjected to immunoblotting. Controls for the immunoprecipitations were performed using an anti-rabbit IgG equal to that of the primary precipitating antibody. Ten percent of whole cell lysates used in the immunoprecipitation was loaded for subsequent immunoblotting.
The ability of the Example compound to SUMOylate SERCA2a was examined using an in vitro system in HEK 293 cells where both SERCA2a and SUMO 1 are expressed. […]

[2] = test system: adult rat ventricular myocytes (ARVMs); assay: Cell shortening/re-lengthening and calcium transient of ARVMs (IonOptix); format: cell-based; conditions: compared to DMSO control; 10 μM
Experimental: Calcium-tolerant adult rat ventricular myocytes (ARVMs) were obtained from hearts of male Sprague-Dawley rats (250 to 300 g). The heart was excised and perfused with a standard enzymatic technique. ARVMs were plated on multi-chambered plates or culture dishes, pre-coated with laminin 2 μg/cm^2, at a density of 10^5 cells/cm^2 in DMEM without L-glutamine supplemented with 10 mmol/l HEPES, 3.7 mg/ml NaHCO3, 1 mg/ml glucose, 0.11 mg/ml sodium pyruvate, 2 mg/ml bovine serum albumin, 2 mmol/1 L-camitine, 5 mmol/1 creatine, 5 mmol/1 taurine, 1% penicillin-streptomycin, and 1% gentamycin. Following isolation, cells were allowed to settle for 1 hour. Cultures were incubated at 37° C., in an atmosphere of 5% CO2-95% air. Fresh medium was added gently as medium was being drawn off until the cultures had been thoroughly washed. Only quiescent, rod-shape cardiac myocytes were selected for IonOptix experiments.
as §2
Mechanical properties of ARVMs were assessed using an IonOptix MyoCam® system (IonOptix, Milton, Mass.). In brief, cells were placed in a Warner chamber mounted on the stage of an inverted microscope (Olympus, IX-70) and superfused (1 ml/min at 30° C.) with a buffer containing 131 mM NaCl, 4 mM KCl, 1 mM CaCh, 1 mM MgCh, 10 mM glucose, and 10 mM HEPES, pH 7.4. ARVMs were field stimulated with suprathreshold voltage and at a frequency of 0.5 Hz. […] SoftEdge software (IonOptix) was used to capture changes in cell length during shortening and re-lengthening.
ARVMs were placed in a chamber on an Olympus IX-70 inverted microscope and imaged through a Fluor 40× oil objective. ARVMs were exposed to light emitted by a 75 W lamp and passed through either a 360 or a 380 nm filter (bandwidths were ±15 nm), while being stimulated to contract at 0.5 Hz. Fluorescence emissions were detected between 480 and 520 nm by a photomultiplier tube after first illuminating cells at 360 nm for 0.5 s then at 380 nm for the duration of the recording protocol (333 Hz sampling rate). The 360 nm excitation scan was repeated at the end of the protocol and qualitative changes in intracellular Ca^2+ concentration ((Ca^2+]i) were inferred from the ratio of the fluorescence intensity at two wavelengths.
The effects of the Example compound was examined on isolated rat cardiomyocytes shortening and relaxation parameters. […] Effects of Example 1 on mechanical properties of the ARVMs were assessed using a video-based edge detection system (IonOptix). The time constant of the increase of force during the stretch decreased (tau), percentage of peak shortening (PS), maximal rate of relaxation and contraction were analyzed at 24 hrs postincubation of the compounds in culture media (N=10 ARVMs). The mechanical data were analyzed with student's t-test (FIG. 2A, P<0.05 compared to the DMSO treated cells). SERCA2a SUMOylation profiling was analyzed in a same set of ARVMs (FIG. 2B, WCL, whole cell lysates; S-SERCA2a, SUMOylated SERCA2a).

Solubility (Table 2) = conditions: DMSO, organic solvent or mixture
HEK-293 cells [3] = assay: Toxicity (Table 2; cytotoxicity in the compound screen)

solubility (Solubility (Table 2)) | Compound | Toxicity (HEK-293 cells [1]) | YFP accumulation (YFP-SUMO1; 10 μM, 24 hours) | SERCA2a SUMOylation (SERCA2a) | Cardiac Contraction: Peak shortening [2] | fold induction at 10 µM (YFP-SUMO1) | Toxicity (HEK-293 cells [3])
– | N-(6-fluorobenzo[d]thiazol-2-yl)-5-(4-methoxyphenyl)-1,3,4-oxadiazol-2-amine [Example 14] | > 50% | Active | Not statistically significant | – | – | –
10 mM (≈ 3300 µg/mL) | Fc1ccc(-c2nnc(Nc3nc4c(F)cccc4s3)o2)cc1 [Example 2, N-(4-fluorobenzo[d]thiazol-2-yl)-5-(4-fluorophenyl)-1,3,4-oxadiazol-2-amine] | – | – | Increased 1.34x compared with DMSO control | Peak shortening 2.2x compared to DMSO control | 2.93 | Non-toxic
10 mM (≈ 3420 µg/mL) | COc1cccc(-c2nnc(Nc3nc4c(F)cccc4s3)o2)c1 [Example 3, N-(4-fluorobenzo[d]thiazol-2-yl)-5-(3-methoxyphenyl)-1,3,4-oxadiazol-2-amine] | – | – | Increased 1.43x compared with DMSO control | Peak shortening 2.5x compared to DMSO control | 2.49 | Non-toxic
10 mM (≈ 3420 µg/mL) | COc1ccc(-c2nnc(Nc3nc4c(F)cccc4s3)o2)cc1 [Example 4, N-(4-fluorobenzo[d]thiazol-2-yl)-5-(4-methoxyphenyl)-1,3,4-oxadiazol-2-amine] | – | – | Increased 1.4x compared with DMSO control | Peak shortening 4.3x compared to DMSO control | 2.34 | Non-toxic
